# Measurements published in ChEMBL document CHEMBL1201862, “PubChem BioAssay data set” (2004).
# Calls of active or inactive are those of the source.
# Legend:
# [1] = Luminescence Cell-Based Dose Retest to Confirm Inhibitors of Cancer Stem Cells. [Related pubchem assays (depositor defined):AID2717, AID2721]; format: functional, Homo sapiens; conditions: Homo sapiens
# [2] = fluconazole-exposed Candida albicans growth modulators – fluorescence, retest, confirmation (AID 2467); format: functional, cell-based
# [3] = HGIII-sPLA2 enzyme inhibition potency – biochemical, QFRET, IC50, dose response (AID 743457);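 also: green fluorescence rise as the enzyme cleaves BODIPY PC-A2 in liposomes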
# [4] = NIH-3T3 fibroblast cytotoxicity, dose response, cytotoxicity control, cell-based, fluorescence, Alamar Blue, secondary assay (AID 2327); format: functional;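 also: NIH-3T3 mouse fibroblasts cultured with fluconazole at 8 µg/mL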
# [5] = molecular target: Potassium channel subfamily K member 9 (Homo sapiens, UniProt Q9NPC2); assay: KCNK9 flux blockade, concentration-response – cell-based, FluxOR thallium flux, selectivity assay for TASK1 inhibitor project, SAR follow-up (AID 652211); format: functional;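 also: potency is for inhibitors of the channel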
# Potassium channel subfamily K member 9, sequence (Q9NPC2 whole entry, the tested form may be a part): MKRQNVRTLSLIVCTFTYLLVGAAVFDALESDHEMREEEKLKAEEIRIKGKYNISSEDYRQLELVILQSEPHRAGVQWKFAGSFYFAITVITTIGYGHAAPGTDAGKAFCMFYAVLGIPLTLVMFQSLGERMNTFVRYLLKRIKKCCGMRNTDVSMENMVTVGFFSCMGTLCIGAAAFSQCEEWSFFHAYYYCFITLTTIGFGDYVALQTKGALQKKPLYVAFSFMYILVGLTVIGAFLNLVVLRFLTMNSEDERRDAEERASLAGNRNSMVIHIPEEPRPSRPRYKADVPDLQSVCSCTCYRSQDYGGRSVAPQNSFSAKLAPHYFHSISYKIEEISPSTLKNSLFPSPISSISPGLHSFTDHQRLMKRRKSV
# [6] = molecular target: Potassium channel subfamily K member 3 (Rattus norvegicus, UniProt O54912); assay: SAR analysis for the identification of selective inhibitors of the two-pore domain potassium channel TASK1(KCNK3):Automated Electrophysiology.; format: functional
# Potassium channel subfamily K member 3 (Rattus norvegicus, UniProt O54912), sequence (O54912 whole entry, the tested form may be a part): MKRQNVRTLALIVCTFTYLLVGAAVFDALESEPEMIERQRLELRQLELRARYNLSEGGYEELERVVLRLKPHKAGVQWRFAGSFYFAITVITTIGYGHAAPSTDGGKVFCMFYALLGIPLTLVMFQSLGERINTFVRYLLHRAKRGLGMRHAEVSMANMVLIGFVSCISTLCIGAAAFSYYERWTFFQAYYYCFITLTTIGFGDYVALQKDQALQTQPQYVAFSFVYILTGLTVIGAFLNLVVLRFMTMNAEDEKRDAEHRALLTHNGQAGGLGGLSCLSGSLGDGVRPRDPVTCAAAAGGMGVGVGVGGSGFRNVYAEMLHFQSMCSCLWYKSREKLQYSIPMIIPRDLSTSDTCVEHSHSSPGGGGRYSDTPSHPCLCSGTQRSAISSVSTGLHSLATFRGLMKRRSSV
# [7] = molecular target: Potassium channel subfamily K member 3 (Homo sapiens, UniProt O14649); assay: inhibition of human KCNK3 channel flux – CHO cells, FluxOR thallium flux, SAR follow-up (AID 652212); format: functional
# Potassium channel subfamily K member 3 (Homo sapiens, UniProt O14649), sequence (O14649 whole entry, the tested form may be a part): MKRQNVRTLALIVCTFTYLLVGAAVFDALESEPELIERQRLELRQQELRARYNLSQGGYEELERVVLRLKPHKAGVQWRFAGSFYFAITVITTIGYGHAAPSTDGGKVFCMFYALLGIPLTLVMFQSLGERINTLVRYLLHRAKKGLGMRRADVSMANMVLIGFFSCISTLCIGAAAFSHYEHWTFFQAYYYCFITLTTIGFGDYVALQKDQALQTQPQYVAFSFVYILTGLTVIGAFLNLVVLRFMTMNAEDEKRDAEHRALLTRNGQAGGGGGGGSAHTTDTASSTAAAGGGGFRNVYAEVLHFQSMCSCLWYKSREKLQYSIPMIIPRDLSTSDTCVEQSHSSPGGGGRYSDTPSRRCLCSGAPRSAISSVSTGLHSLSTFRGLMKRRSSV
# [8] = molecular target: Disintegrin and metalloproteinase domain-containing protein 17 (Homo sapiens, UniProt P78536); assay: exosite inhibitors of ADAM17, dose response, biochemical (AID 743260)
# Disintegrin and metalloproteinase domain-containing protein 17, sequence (P78536 whole entry, the tested form may be a part): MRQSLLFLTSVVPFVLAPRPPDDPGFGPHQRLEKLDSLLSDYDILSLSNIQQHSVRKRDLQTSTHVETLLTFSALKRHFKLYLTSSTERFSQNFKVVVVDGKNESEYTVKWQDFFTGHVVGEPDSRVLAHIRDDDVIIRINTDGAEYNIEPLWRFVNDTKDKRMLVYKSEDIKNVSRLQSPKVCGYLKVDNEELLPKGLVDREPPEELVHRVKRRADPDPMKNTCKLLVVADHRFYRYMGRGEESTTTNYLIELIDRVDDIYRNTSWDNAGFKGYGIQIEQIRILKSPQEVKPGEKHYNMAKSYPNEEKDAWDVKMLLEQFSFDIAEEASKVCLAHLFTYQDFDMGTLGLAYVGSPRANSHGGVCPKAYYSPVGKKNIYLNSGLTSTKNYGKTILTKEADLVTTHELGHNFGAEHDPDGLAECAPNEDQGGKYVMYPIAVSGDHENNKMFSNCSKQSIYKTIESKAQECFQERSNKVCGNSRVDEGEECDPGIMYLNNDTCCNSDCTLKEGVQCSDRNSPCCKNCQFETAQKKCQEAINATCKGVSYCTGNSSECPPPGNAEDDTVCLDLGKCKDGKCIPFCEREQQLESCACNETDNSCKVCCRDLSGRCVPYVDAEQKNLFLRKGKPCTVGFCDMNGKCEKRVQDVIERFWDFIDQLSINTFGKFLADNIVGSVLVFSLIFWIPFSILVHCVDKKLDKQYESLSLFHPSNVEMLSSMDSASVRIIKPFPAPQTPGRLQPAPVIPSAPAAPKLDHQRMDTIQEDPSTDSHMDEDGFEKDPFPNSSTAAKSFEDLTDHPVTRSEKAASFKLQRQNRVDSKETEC
# [9] = inhibition of ADAM10 peptide cleavage – biochemical, FRET peptide substrate, recombinant human ADAM10, selectivity assay for ADAM17 exosite inhibitor project, dose response (AID 743259);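 also: ADAM10 enzyme cleaving a FRET peptide substrate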
# [10] = molecular target: Kallikrein-7 (Homo sapiens, UniProt P49862); assay: Fluorescence Intensity-based biochemical primary high throughput dose response assay to identify activators of kallikrein-7 (K7) zymogen.
# Kallikrein-7, sequence (P49862 whole entry): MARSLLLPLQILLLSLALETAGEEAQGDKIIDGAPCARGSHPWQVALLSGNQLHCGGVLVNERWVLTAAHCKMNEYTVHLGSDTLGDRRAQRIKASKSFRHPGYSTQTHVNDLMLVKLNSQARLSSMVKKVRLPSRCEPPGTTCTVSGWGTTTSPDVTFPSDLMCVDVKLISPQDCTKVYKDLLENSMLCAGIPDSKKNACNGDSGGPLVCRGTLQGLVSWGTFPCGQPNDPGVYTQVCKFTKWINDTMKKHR
# [11] = system: T-cell; assay: loss of vesicle association with mouse CD8+ T cells – mouse 2C CD8+ T cells, flow cytometry, dose response (AID 485284); format: functional
# [12] = optical artefact potency, substrate without enzyme – biochemical, fluorescence intensity, triplicate, artefact control for kallikrein-7 zymogen activator project, dose response (AID 720493)
# [13] = molecular target: T1, Mannose-6-phosphate isomerase (Homo sapiens, UniProt P34949); assay: MPI enzyme activity inhibition – biochemical, fluorescence intensity, coupled assay, primary screen (AID 1209)
# T1 sequence (P34949 whole entry): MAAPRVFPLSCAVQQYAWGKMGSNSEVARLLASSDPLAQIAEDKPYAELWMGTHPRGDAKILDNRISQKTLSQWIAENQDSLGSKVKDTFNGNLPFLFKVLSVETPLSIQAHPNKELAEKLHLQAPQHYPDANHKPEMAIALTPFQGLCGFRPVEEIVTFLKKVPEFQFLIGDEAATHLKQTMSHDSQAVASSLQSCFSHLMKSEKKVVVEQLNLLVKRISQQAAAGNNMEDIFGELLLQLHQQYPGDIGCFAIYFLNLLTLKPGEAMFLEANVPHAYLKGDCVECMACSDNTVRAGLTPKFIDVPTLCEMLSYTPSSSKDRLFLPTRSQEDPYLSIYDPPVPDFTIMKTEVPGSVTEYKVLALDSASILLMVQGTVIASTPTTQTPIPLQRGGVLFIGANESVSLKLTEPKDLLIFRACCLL
# [14] = reduction of Shn3 3'UTR-driven luciferase in osteoblasts – cell-based, Clone20 osteoblasts, firefly luciferase, cherry-picked, dose response (AID 624132); format: functional;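 also: firefly luciferase luminescence from reporter carrying the Shn3 3'UTR in osteoblasts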
# [15] = non-specific 3'UTR reporter inhibition in Clone20-Shn3RL – cell-based, Renilla luciferase, cherry-picked, counter-screen for Shn3 inhibitor project, dose response (AID 624133); format: functional
# [16] = loss of viability in HepG2 cells – cell-based, CellTiter-Glo, cherry-picked, cytotoxicity control for Shn3 inhibitor project, dose response (AID 624134); format: functional
# [17] = system: BHK-21; assay: viability loss in BHK-21 cells – cell-based, plate reader, cherry-pick samples, cytotoxicity control, dose response (AID 687030); format: functional; conditions: Mesocricetus auratus
# [18] = system: INS1; assay: INS-1E survival protection against cytokine death – cell-based, luminescence, retest, dose response (AID 449756); format: functional; conditions: Rattus norvegicus;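 also: cell death triggered by IL-1 beta plus TNF-alpha plus IFN-gamma mixture; protective hits raise ATP signal compared with cytokine alone wells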
# [19] = system: A549; assay: viability loss in A549 cells – cell-based, plate reader, cherry-pick samples, cytotoxicity control, dose response (AID 687028); format: functional; conditions: Homo sapiens
# [20] = PAX5 cellular inhibition readout – cell-based, plate reader, dry powder samples, selectivity assay for PAX8 inhibitor project, dose response (AID 743047); format: functional;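 also: HEK293 cells carrying a Pax5 driven CD19 promoter luciferase reporter; potency of inhibitors that lower reporter luminescence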
# [21] = OVCAR4 cell viability loss – plate reader, dry powder, SA11, cytotoxicity control for PAX8 inhibitor project, dose response (AID 743150); format: functional, cell-based; conditions: OVCAR-4
# [22] = blockers of HIV-1 envelope-mediated cell-cell fusion – cherry-pick, dose response (AID 652057); format: functional, cell-based
# [23] = OV-90 cell viability loss – plate reader, dry powder, SA8, PAX8 inhibitor project, dose response (AID 743149); format: functional, cell-based
# [24] = inhibitors acting on PAX2 in cells – cell-based, plate reader, dry powder samples, selectivity assay for PAX8 inhibitor project, dose response (AID 743048); format: functional;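 also: HEK293 cells carrying a WT1 promoter luciferase reporter driven by expressed Pax2; potency is for inhibition of Pax2 driven reporter signal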
# [25] = PAX8-dependent cell viability loss – plate reader, dry powder, dose response (AID 743049); format: functional, cell-based
# [26] = OVCAR8 cell viability loss – plate reader, dry powder samples, PAX8 project, dose response (AID 743197); format: functional, cell-based; conditions: OVCAR-8
# [27] = molecular target: Paired box protein Pax-8 (Homo sapiens, UniProt Q06710); assay: PAX8 transcriptional activity inhibition in RMG-I – RMG-I cells, luciferase, cherry-pick, dose response (AID 687027); format: functional, cell-based;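 also: luciferase reporter driven by Pax8 target thyroperoxidase promoter measured by SteadyGlo luminescence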
# Paired box protein Pax-8, sequence (Q06710 whole entry): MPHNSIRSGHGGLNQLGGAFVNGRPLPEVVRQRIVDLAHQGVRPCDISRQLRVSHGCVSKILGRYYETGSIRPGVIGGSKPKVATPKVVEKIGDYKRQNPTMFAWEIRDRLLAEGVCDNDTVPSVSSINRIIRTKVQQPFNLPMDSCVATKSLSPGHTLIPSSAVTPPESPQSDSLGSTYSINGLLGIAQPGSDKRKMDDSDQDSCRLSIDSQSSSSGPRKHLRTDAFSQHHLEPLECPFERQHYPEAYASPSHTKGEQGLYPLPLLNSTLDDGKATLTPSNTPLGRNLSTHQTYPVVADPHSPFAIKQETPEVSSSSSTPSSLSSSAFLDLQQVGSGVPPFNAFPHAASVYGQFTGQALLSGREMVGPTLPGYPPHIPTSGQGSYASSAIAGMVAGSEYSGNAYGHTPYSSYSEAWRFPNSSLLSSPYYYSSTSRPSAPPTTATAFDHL
# [28] = OVCAR-3 cell viability loss – plate reader, dry powder samples, PAX8 inhibitor project, dose response (AID 743044); format: functional, cell-based
# [29] = COV434 cell viability loss – plate reader, dry powder, SA7, cytotoxicity control for PAX8 inhibitor project, dose response (AID 743145); format: functional, cell-based
# [30] = system: HeLa; assay: viability loss in HeLa cells – cell-based, ATP luminescence, cherry-pick samples, cytotoxicity control, dose response (AID 687004); format: functional; conditions: Homo sapiens
# [31] = HEK293 Cytotoxicity Assay Measured in Cell-Based System Using Plate Reader - 7071-01_Inhibitor_Dose_CherryPick_Activity_Set2.; format: functional
# [32] = system: HEK293; assay: viability loss in HEK293T cells – cell-based, ATP luminescence, cherry-pick samples, cytotoxicity control, dose response (AID 687005); format: functional; conditions: Homo sapiens;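 also: cells exposed to compound for 48 hours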
# [33] = CMV-driven luciferase expression suppression in HEK293 – cell-based, luminescence, dry powder, counter-screen for Pax8 inhibitor project, dose response (AID 743020); format: functional
# [34] = general cell-killing toxicity readout – plate reader, dry powder samples, cytotoxicity control for PAX8 inhibitor project, dose response (AID 743021); format: functional, cell-based
# [35] = toxicity toward immortalized ovarian surface epithelium – cell-based, plate reader, dry powder samples, cytotoxicity control for PAX8 inhibitor project, dose response (AID 743045); format: functional
# [36] = A2780 cell killing – plate reader, dry powder samples, cytotoxicity control, dose response (AID 743046); format: functional, cell-based
# [37] = molecular target: Protein Wnt-3a (Mus musculus, UniProt P27467); assay: SAR analysis of small molecule antagonists of Gli-SUFU in a Wnt3a luminescent reporter assay.; format: functional
# Protein Wnt-3a, sequence (P27467 whole entry): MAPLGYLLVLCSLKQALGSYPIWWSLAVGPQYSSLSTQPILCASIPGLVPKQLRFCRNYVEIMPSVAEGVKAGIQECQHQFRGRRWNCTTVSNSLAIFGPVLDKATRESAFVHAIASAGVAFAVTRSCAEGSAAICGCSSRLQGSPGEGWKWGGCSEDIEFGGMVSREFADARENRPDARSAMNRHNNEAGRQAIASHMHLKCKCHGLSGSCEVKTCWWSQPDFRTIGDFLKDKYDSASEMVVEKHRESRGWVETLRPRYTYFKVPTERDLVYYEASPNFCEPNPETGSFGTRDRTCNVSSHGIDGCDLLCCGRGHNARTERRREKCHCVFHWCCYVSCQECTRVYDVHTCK
# [38] = Late stage assay provider results from the probe development effort to identify selective inhibitors of heat shock protein 90 (HSP90): Absorbance-based cell proliferation assay in SKBR3 cells.; format: functional; conditions: SK-BR-3
# [39] = Late stage assay provider results from the probe development effort to identify selective inhibitors of heat shock protein 90 (HSP90): Absorbance-based cell proliferation assay in MCF7 cells.; format: functional
# [40] = kidney cell line viability loss – HEK293T, luminescence plate reader, powder samples, set 4, cytotoxicity control, dose response (AID 651863); format: functional, cell-based; conditions: HEK293
# [41] = molecular target: Metabotropic glutamate receptor 3 (Rattus norvegicus, UniProt P31422); assay: inhibitors of rat mGlu3 Galpha15 signaling – TREx293 cells, calcium flux, mGlu3 NAM project, dose response (AID 651840); format: functional
# Metabotropic glutamate receptor 3, sequence (P31422 whole entry): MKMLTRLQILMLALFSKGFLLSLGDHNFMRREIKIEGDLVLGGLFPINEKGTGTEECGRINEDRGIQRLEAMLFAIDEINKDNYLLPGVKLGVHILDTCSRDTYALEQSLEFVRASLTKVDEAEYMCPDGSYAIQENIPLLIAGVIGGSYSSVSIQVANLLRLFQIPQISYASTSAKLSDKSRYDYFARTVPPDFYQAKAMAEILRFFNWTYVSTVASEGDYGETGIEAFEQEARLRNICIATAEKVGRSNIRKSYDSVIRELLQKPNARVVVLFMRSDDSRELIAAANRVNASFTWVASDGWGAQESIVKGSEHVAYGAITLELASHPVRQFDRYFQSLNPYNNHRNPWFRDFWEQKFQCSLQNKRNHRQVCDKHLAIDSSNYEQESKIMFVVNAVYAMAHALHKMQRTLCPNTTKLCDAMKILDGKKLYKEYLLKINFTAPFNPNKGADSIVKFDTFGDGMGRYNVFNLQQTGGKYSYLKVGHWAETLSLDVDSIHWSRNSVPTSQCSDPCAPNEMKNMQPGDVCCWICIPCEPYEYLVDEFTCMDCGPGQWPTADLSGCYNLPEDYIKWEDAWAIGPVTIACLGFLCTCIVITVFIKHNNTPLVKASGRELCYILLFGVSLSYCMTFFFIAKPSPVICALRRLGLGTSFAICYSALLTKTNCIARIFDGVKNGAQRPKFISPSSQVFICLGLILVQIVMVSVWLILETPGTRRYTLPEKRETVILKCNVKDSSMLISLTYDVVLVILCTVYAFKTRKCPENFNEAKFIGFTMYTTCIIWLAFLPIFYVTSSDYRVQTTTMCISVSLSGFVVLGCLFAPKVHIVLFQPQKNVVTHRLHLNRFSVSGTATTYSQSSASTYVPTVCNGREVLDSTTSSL
# [42] = T. cruzi growth inhibition in host cells, dose response, cell-based, plate reader, dry powder, set 2 (AID 652275); format: functional
# [43] = anti-trypanosomal activity in BESM host cells – imaging, CA-I/72 strain, bovine embryo skeletal muscle, dry powder, dose response (AID 651885); format: functional, cell-based
# [44] = A549 cell cytotoxicity, dose response, cytotoxicity control, plate reader, cherry-pick, antagonist series (AID 743412); format: functional, cell-based
# [45] = blockade of melanocortin 4 receptor signaling – cell-based, plate reader, cherry pick, counter-screen for LGR2 antagonist project, dose response (AID 743444); format: functional;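 also: transfected HEK 293 cells stimulated with alpha-MSH peptide; potency of inhibitors of the alpha-MSH evoked signal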
# [46] = inhibition of bursicon-driven LGR2 cAMP signaling – cell-based, HEK293, CRE-luciferase reporter, cherry pick, dose response (AID 743342); format: functional
# [47] = Cytotoxicity screening for potential Inhibitors of Bacterial Capsule Biogenesis (4).; format: functional
smiles,measurement,setting,value
Cc1cc(C)c2nc(NNC(=O)c3cc(-c4cccs4)nc4ccccc34)sc2c1,AC50,[1],2.13 µM (active)
same,EC50,[2],> 38 µM (not active)
same,IC50,[3],53.9 µM (inactive)
same,EC50,[4],10.7 µM (active)
Cc1cccc(C(=O)Nc2cccc(NC(=O)c3ccccc3)c2)c1,IC50,[5],0.36 µM (active)
same,IC50,[6],0.075 µM (active)
same,IC50,[7],0.015 µM (active)
CCOC(=O)c1c(NC(=O)Cn2nc(C(F)F)cc2C(F)F)sc(C)c1C,IC50,[8],> 69.5 µM (inactive)
same,IC50,[9],> 69.5 µM (inactive)
Cc1c2cccn2cc[n+]1C,EC50,[10],17.5 µM (inactive)
same,EC50,[11],79.2 µM (inactive)
same,EC50,[12],> 7.72 µM (active)
same,IC50,[13],> 50 µM (not active)
CC(=O)NC(c1cc(Cl)c2cccnc2c1O)C(C)C (stereo not given),AC50,[14],2.96 µM (active)
same,AC50,[15],2.71 µM (active)
same,AC50,[16],5.13 µM (active)
same,AC50,[17],21.6 µM (active)
same,AC50,[18],1.76 µM (active)
same,AC50,[19],23.5 µM (active)
COc1ccccc1C#Cc1ccc2c(c1)O[C@@H](CN(C)Cc1ccncc1)[C@H](C)CN([C@H](C)CO)S2(=O)=O,AC50,[20],9.35 µM (active)
same,AC50,[21],11.5 µM (active)
same,AC50,[22],42.1 µM (active)
same,AC50,[23],7.34 µM (active)
same,AC50,[24],2.28 µM (active)
same,AC50,[25],4.51 µM (active)
same,AC50,[26],27.7 µM (active)
same,AC50,[27],2.39 µM (active)
same,AC50,[28],13.3 µM (active)
same,AC50,[29],0.0946 nM (active)
O=S(=O)(c1ccc(F)cc1)N1C[C@@H]2[C@H](c3ccccc31)[C@@H](CO)N2Cc1ccccc1Cl,AC50,[30],> 47 µM (inactive)
same,AC50,[31],18.9 µM (active)
same,AC50,[32],18.9 µM (active)
C[C@@H]1CN([C@H](C)CO)C(=O)c2cc(NC(=O)Nc3ccccc3)ccc2O[C@@H](C)CCCCO[C@@H]1CN(C)Cc1ccc(Cl)c(Cl)c1,AC50,[33],43.4 µM (active)
same,AC50,[26],29.6 µM (active)
same,AC50,[34],52.3 µM (active)
same,AC50,[35],44.5 µM (active)
same,AC50,[36],14.9 µM (active)
same,AC50,[27],4.45 µM (active)
same,AC50,[28],18.4 µM (active)
CC(C)CNc1cc(NC(=O)c2cccc(F)c2)ncn1,IC50,[37],> 21.8 µM (inactive)
Cc1c(Cl)c(=O)oc2c(C)c(OCc3ccccc3)ccc12,IC50,[38],> 100 µM (inactive)
same,IC50,[39],> 100 µM (inactive)
Cc1ccc(S(=O)(=O)NNc2nc(NCC(N)=O)nc3ccccc23)cc1,AC50,[40],> 52 µM (inactive)
COc1ccc(C#Cc2ccc(C(=O)N3CCC(=O)C(C)C3)cc2)cc1 (stereo not given),IC50,[41],8.95 µM
C[C@@H]1CN([C@@H](C)CO)C(=O)c2cc(-c3cncnc3)cnc2O[C@H]1CN(C)Cc1ccc(Oc2ccccc2)cc1,AC50,[42],0.403 µM (active)
same,IC50,[43],> 20 µM (inactive)
C[C@H](CO)N1C[C@H](C)[C@H](CN(C)C(=O)Nc2ccccc2)OCCCC[C@H](C)Oc2ccc(NC(=O)Nc3ccc4c(c3)OCO4)cc2C1=O,AC50,[44],> 52 µM (inactive)
same,AC50,[45],25.4 µM (active)
same,AC50,[46],36.6 µM (active)
CC(C)(C)OC(=O)Nc1nc2ccc(C(=O)Nc3ccnc(Br)c3)cc2s1,CC50,[47],> 300 µM (inactive)
